In US20260166039A1 (SCHRÖDINGER, INC., priority 2022, published 2026):

Biological target: T1, Wee1 kinase domain (Homo sapiens, UniProt P30291)
T1 construct: Wee1 kinase domain was purchased from Carna (catalog #05-177); purchased Carna 05-177
Test: Wee1 Kinase Biochemical Assay (ADP-Glo)
Settings: 15 uM ATP
How it was run: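 ADP-Glo luminescence readout of ADP produced by 1 nM kinase domain phosphorylating Poly(Lys,Tyr 4:1) (2 ng/mL) at 15 uM ATP. Reaction ran 4 h, 25 °C, in Tris/MgCl2 buffer with BSA and DTT. Inhibition scaled between DMSO (high) and saturating control inhibitor (low).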

[1] = class symbols, 1 nM Wee1 enzyme, 4 hours at 25° C.

T1 sequence (P30291 299-569 limits assumed): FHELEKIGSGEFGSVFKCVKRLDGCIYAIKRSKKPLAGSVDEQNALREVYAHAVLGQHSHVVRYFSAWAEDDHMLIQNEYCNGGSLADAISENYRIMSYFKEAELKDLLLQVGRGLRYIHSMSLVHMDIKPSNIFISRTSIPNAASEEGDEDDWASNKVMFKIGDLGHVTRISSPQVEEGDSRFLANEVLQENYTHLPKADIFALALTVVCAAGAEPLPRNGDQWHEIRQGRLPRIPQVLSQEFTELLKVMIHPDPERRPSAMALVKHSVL

IC50 [1] [µM]	IC50 (Wee1 kinase domain, ADP-Glo) [µM]	Structure (SMILES)
0.01 to 0.1	–	CN1C[C@H]2C[C@@H]1CN2c1ccc(Nc2ncc3c(n2)N(c2cccc(N=S(C)(C)=O)c2)[C@H]2CC(C)(C)OC[C@@]32C)cc1 [Example 714, dimethyl((3-((4bS,8aS)-4b,7,7-trimethyl-2-((4-((1R,4R)-5-methyl-2,5-diazabicyclo[2.2.1]heptan-2-yl)phenyl)amino)-4b,7,8,8a-tetrahydropyrano[3′,4′:4,5]pyrrolo[2,3-d]pyrimidin-9(5H)-yl)phenyl)imino)-16-sulfanone]
0.1 to 1	–	CC1(C)C[C@@H]2N(c3cccc(N4CCCC4=O)n3)c3nc(Nc4ccc(O[C@@H]5CCNC5)cc4)ncc3[C@]2(C)CO1 [Example 617, 1-(6-((4bS,8aS)-4b,7,7-trimethyl-2-((4-(((R)-pyrrolidin-3-yl)oxy)phenyl)amino)-4b,7,8,8a-tetrahydropyrano[3′,4′:4,5]pyrrolo[2,3-d]pyrimidin-9(5H)-yl)pyridin-2-yl)pyrrolidin-2-one]
< 0.01	–	CC[C@]1(O)CCc2ccc(N3c4nc(Nc5ccc(N6C[C@@H]7C[C@H]6CN7C)cc5)ncc4[C@@]4(C)COC(C)(C)C[C@@H]34)nc21 [Example 791, (S)-7-ethyl-2-((4bR,8aR)-4b,7,7-trimethyl-2-((4-((1S,4S)-5-methyl-2,5-diazabicyclo[2.2.1]heptan-2-yl)phenyl)amino)-4b,7,8,8a-tetrahydropyrano[3′,4′:4,5]pyrrolo[2,3-d]pyrimidin-9(5H)-yl)-6,7-dihydro-5H-cyclopenta[b]pyridin-7-ol]
0.1 to 1	–	CN[C@@H]1CCc2ccc(N3c4nc(Nc5ccc(N6CCOCC6)cc5)ncc4[C@]4(C)COC(C)(C)C[C@H]34)nc21 (single isomer, unassigned) [Example 554]
0.01 to 0.1	–	CC1(C)C[C@@H]2N(c3cccc(N4CCOC4=O)n3)c3nc(Nc4ccc(O[C@@H]5CCNC5)cc4)ncc3[C@]2(C)CO1 [Example 623, 3-(6-((4bS,8aS)-4b,7,7-trimethyl-2-((4-(((R)-pyrrolidin-3-yl)oxy)phenyl)amino)-4b,7,8,8a-tetrahydropyrano[3′,4′:4,5]pyrrolo[2,3-d]pyrimidin-9(5H)-yl)pyridin-2-yl)oxazolidin-2-one]
0.01 to 0.1	–	CNCc1cccc(N2c3nc(NC(=O)[C@H]4C[C@@H]4c4cnn(C)c4)ncc3[C@@]3(C)COC(C)(C)C[C@@H]23)n1 [Example 763, (1S,2S)-2-(1-methyl-1H-pyrazol-4-yl)-N-((4bR,8aR)-4b,7,7-trimethyl-9-(6-((methylamino)methyl)pyridin-2-yl)-4b,5,7,8,8a,9-hexahydropyrano[3′,4′:4,5]pyrrolo[2,3-d]pyrimidin-2-yl)cyclopropane-1-carboxamide]
0.01 to 0.1	–	CN1C[C@H]2C[C@@H]1CN2c1ccc(Nc2ncc3c(n2)N(c2cccc(C4(O)CC4)n2)[C@H]2CC(C)(C)OC[C@@]32C)cc1 [Example 647, 1-(6-((4bS,8aS)-4b,7,7-trimethyl-2-((4-((1R,4R)-5-methyl-2,5-diazabicyclo[2.2.1]heptan-2-yl)phenyl)amino)-4b,7,8,8a-tetrahydropyrano[3′,4′:4,5]pyrrolo[2,3-d]pyrimidin-9(5H)-yl)pyridin-2-yl)cyclopropan-1-ol]
0.01 to 0.1	–	CC1(C)C[C@@H]2N(c3cccc(N4CCCC4=O)n3)c3nc(Nc4ccc([C@H]5CCNC5)cc4)ncc3[C@]2(C)CO1 [Example 637, 1-(6-((4bS,8aS)-4b,7,7-trimethyl-2-((4-((R)-pyrrolidin-3-yl)phenyl)amino)-4b,7,8,8a-tetrahydropyrano[3′,4′:4,5]pyrrolo[2,3-d]pyrimidin-9(5H)-yl)pyridin-2-yl)pyrrolidin-2-one]
0.1 to 1	–	CC1(C)C[C@@H]2N(c3cccc(N4CCOC4=O)n3)c3nc(Nc4ccc([C@H]5CNCC5(F)F)cc4)ncc3[C@]2(C)CO1 [Example 683, 3-(6-((4bS,8aS)-2-((4-((S)-4,4-difluoropyrrolidin-3-yl)phenyl)amino)-4b,7,7-trimethyl-4b,7,8,8a-tetrahydropyrano[3′,4′:4,5]pyrrolo[2,3-d]pyrimidin-9(5H)-yl)pyridin-2-yl)oxazolidin-2-one]
0.01 to 0.1	–	CC1(C)C[C@@H]2N(c3cccc(N4CCOC4=O)n3)c3nc(Nc4ccc([C@H]5CNC[C@H]5F)cc4)ncc3[C@]2(C)CO1 [Example 673, 3-(6-((4bS,8aS)-2-((4-((3S,4S)-4-fluoropyrrolidin-3-yl)phenyl)amino)-4b,7,7-trimethyl-4b,7,8,8a-tetrahydropyrano[3′,4′:4,5]pyrrolo[2,3-d]pyrimidin-9(5H)-yl)pyridin-2-yl)oxazolidin-2-one]
0.01 to 0.1	–	CN1CC[C@@H](c2ccc(Nc3ncc4c(n3)N(c3cccc(N5CCOC5=O)n3)[C@H]3CC(C)(C)OC[C@@]43C)cc2)C1 (single isomer, unassigned) [Example 604]
< 0.01	–	CN[C@H](C)c1cc(C)nc(N2c3nc(Nc4ccc(N5CCOCC5)cc4)ncc3[C@@]3(C)COC(C)(C)C[C@@H]23)c1 (single isomer, unassigned) [Example 557]
0.1 to 1	–	CN1CCC(c2cccc(N3c4nc(Nc5ccc(N6CCOCC6)cc5)ncc4[C@]4(C)COC(C)(C)C[C@H]34)n2)CC1 (single isomer, unassigned) [Example 534]
< 0.01	–	CN1CCN(c2ccc(Nc3ncc4c(n3)N(c3cccc(C(F)F)n3)[C@@H]3CC(C)(C)OC[C@]43C)cc2)CC1 (single isomer, unassigned) [Example 807]

More lines, now with the values behind:

Structure (SMILES)	IC50 [1] [µM]	IC50 (Wee1 kinase domain, ADP-Glo) [µM]
Cc1cc(Nc2ncc3c(n2)N(c2cccc(C(C)(C)O)n2)[C@H]2CC(C)(C)OC[C@@]32C)ccc1N1CCN(C)CC1 (single isomer, unassigned) [Example 10]	–	0.01 to 0.1
CNCc1cccc(N2c3nc(Nc4ccc(N5CCN(C)CC5)c(C)c4)ncc3[C@]3(C)COC(C)(C)C[C@H]23)n1 (single isomer, unassigned) [Example 447]	0.1 to 1	–
C[C@H]1COC(=O)N1c1cccc(N2c3nc(Nc4ccc(OC5CNC5)nc4)ncc3[C@]3(C)COC(C)(C)C[C@H]23)n1 (single isomer, unassigned) [Example 342]	–	0.1 to 1
C[C@H]1COC(=O)N1c1cccc(N2c3nc(Nc4ccn(C5CCN(C)CC5)c(=O)c4)ncc3[C@]3(C)COC(C)(C)C[C@H]23)n1 (single isomer, unassigned) [Example 272]	–	0.01 to 0.1
C[C@H]1COC(=O)N1c1cccc(N2c3nc(Nc4ccc(N5CCN(C)CC5=O)cc4)ncc3[C@]3(C)COC(C)(C)C[C@H]23)n1 (single isomer, unassigned) [Example 270]	–	0.01 to 0.1
C[C@H]1COC(=O)N1c1cccc(N2c3nc(Nc4ccc(N5C[C@H]6C[C@@H](C5)N6C)cc4)ncc3[C@]3(C)COC(C)(C)C[C@H]23)n1 (single isomer, unassigned) [Example 353]	–	0.01 to 0.1
CC(=O)Nc1ncc2c(n1)N(c1cccc(N=S(C)(C)=O)n1)[C@@H]1CC(C)(C)OC[C@]21C (single isomer, unassigned) [Example 398]	–	0.01 to 0.1
C[C@H]1COC(=O)N1c1cccc(N2c3nc(Nc4ccc(C(C)(C)C)nc4)ncc3[C@]3(C)COC(C)(C)C[C@H]23)n1 (single isomer, unassigned) [Example 300]	–	0.1 to 1
CC1(C)C[C@@H]2N(c3cccc([C@@H]4CCCN4)n3)c3nc(Nc4ccc(N5CCOCC5)cc4)ncc3[C@]2(C)CO1 (single isomer, unassigned) [Example 525]	0.1 to 1	–
CN1CC(c2ccc(Nc3ncc4c(n3)N(c3cccc(N=S(C)(C)=O)n3)[C@H]3CC(C)(C)OC[C@@]43C)cn2)C1 (single isomer, unassigned) [Example 193]	–	0.1 to 1
CNCc1cccc(N2c3nc(Nc4ccc(N5CCOCC5)cc4)ncc3[C@]3(C)COC(C)(C)C[C@H]23)n1 (single isomer, unassigned) [Example 6]	–	0.01 to 0.1
CN1CC2(C1)CN(c1ccc(Nc3ncc4c(n3)N(c3cccc(C(C)(C)O)n3)[C@H]3CC(C)(C)OC[C@@]43C)cc1)C2 (single isomer, unassigned) [Example 444]	0.1 to 1	–
CNCc1cccc(N2c3nc(Nc4ccc(N5CCC(F)(F)C5)cc4)ncc3[C@]3(C)COC(C)(C)C[C@H]23)n1 (single isomer, unassigned) [Example 21]	–	0.1 to 1
CN1CCC[C@H](n2cc(Nc3ncc4c(n3)N(c3cccc(N=S(C)(C)=O)n3)[C@H]3CC(C)(C)OC[C@@]43C)cn2)C1 (single isomer, unassigned) [Example 200]	–	0.01 to 0.1
CC1(C)C[C@H]2N(c3cccc(N=S(C)(C)=O)n3)c3nc(Nc4ccc(N5CCN6CCC[C@H]6C5)cc4)ncc3[C@@]2(C)CO1 (single isomer, unassigned) [Example 507]	< 0.01	–
CNCc1cccc(N2c3nc(Nc4ccc(N5CCOCC5)c(Cl)c4)ncc3[C@]3(C)COC(C)(C)C[C@H]23)n1 (single isomer, unassigned) [Example 13]	–	0.01 to 0.1
Cc1cc(Nc2ncc3c(n2)N(c2cccc(N4C(=O)OC[C@@H]4C)n2)[C@H]2CC(C)(C)OC[C@@]32C)ccc1[C@H]1CCNC1 (single isomer, unassigned) [Example 266]	–	0.01 to 0.1
CN1CCC[C@@H]1c1ccc(Nc2ncc3c(n2)N(c2cccc(N=S(C)(C)=O)n2)[C@H]2CC(C)(C)OC[C@@]32C)cn1 (single isomer, unassigned) [Example 209]	–	0.01 to 0.1
CCn1cc(Nc2ncc3c(n2)N(c2cccc(N=S(C)(C)=O)n2)[C@@H]2CC(C)(C)OC[C@]32C)nn1 (single isomer, unassigned) [Example 516]	< 0.01	–
CN1CCC[C@@H]1c1ccc(Nc2ncc3c(n2)N(c2cccc(N=S(C)(C)=O)n2)[C@H]2CC(C)(C)OC[C@@]32C)cc1 (single isomer, unassigned) [Example 128]	–	0.1 to 1
CC1(C)C[C@H]2N(c3cccc(N=S(C)(C)=O)n3)c3nc(NC(=O)c4ccccn4)ncc3[C@@]2(C)CO1 (single isomer, unassigned) [Example 407]	0.01 to 0.1	–
CN1CC[C@@H]2CN(c3ccc(Nc4ncc5c(n4)N(c4cccc(C(C)(C)O)n4)[C@H]4CC(C)(C)OC[C@@]54C)cc3)C[C@@H]21 (single isomer, unassigned) [Example 438]	0.1 to 1	–
